Series [1] in a line: Equilibrium solubility determined after stirring the compound in buffered solution for more than 5 hours at pH 7.4. It counts as ADME.
Series [2] has as its target T1, Cholecystokinin receptor type A (Rattus norvegicus, UniProt P30551).
T1 sequence (P30551 whole entry): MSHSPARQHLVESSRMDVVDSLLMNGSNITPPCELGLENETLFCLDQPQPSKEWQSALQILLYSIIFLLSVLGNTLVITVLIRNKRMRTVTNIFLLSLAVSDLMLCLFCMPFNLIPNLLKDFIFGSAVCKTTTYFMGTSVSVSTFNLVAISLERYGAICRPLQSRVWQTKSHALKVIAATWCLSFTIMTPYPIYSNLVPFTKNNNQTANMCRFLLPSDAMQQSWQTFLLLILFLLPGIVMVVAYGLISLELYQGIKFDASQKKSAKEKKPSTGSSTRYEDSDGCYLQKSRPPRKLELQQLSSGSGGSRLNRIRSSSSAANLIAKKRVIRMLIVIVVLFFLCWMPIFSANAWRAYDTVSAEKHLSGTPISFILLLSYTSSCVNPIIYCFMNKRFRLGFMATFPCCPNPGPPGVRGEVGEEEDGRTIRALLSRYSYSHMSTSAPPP
In words: The compound was tested for binding activity against Cholecystokinin type A receptor from rat pancreas using [125]BH CCK-8s as radioligand.

Series [3] can be described thus: Equilibrium solubility determined after stirring the compound in buffered solution for more than 5 hours at pH 8.00. It counts as ADME.
The target of series [4] is T1, Cholecystokinin receptor type A. Description: The compound was tested for binding activity against Cholecystokinin type A receptor from rat pancreatic tissue using [125]BH CCK-A as radioligand.
Series [5] can be described thus: Equilibrium solubility determined after stirring the compound in buffered solution for more than 5 hours at pH 7. The format is ADME.
The nature of series [6]: Equilibrium solubility determined after stirring the compound in buffered solution for more than 5 hours at pH 8.0. It counts as ADME.

pIC50: −log10 of the molar value. ≈ marks a conversion by molar mass, not a printed value.

As usually defined, the thermodynamic solubility is solubility found after equilibrating the solid with the medium. In general, pIC50 refers to −log10 of the IC50, conventionally taken in molar units. Higher therefore signals a low IC50. For the molecule `Cc1ccc(NC(=O)N[C@H]2N=C(c3ccccc3)c3ccccc3N(C)C2=O)cc1`, in series [1], the solubility (thermodynamic) at 5 h is greater than 2 µg/mL. Further, the pIC50 in series [2] is 6.13.

For the molecule `CN1C(=O)[C@H](NC(=O)Nc2ccc(-c3nc(=O)o[nH]3)cc2)N=C(c2ccccc2)c2ccccc21`, the pIC50 in series [2] was 7.81. With `CC(C)CN1C(=O)[C@@H](NC(=O)Nc2ccc(-c3nn[nH]n3)cc2)N=C(c2ccccc2)c2ccccc21`, the thermodynamic solubility at 5 h in series [3] is greater than 11000 µg/mL; in series [5], 1400 µg/mL (≈ 2.83 mM). In series [4], this molecule showed a pIC50 of 5.84. Turning to `CN1C(=O)[C@@H](NC(=O)Nc2ccc(-c3nnn[nH]3)cc2)N=C(c2ccccc2)c2ccccc21`, the thermodynamic solubility at 5 h in series [1] came out at 3740 µg/mL (≈ 8.27 mM). In series [4], this molecule gave a pIC50 of 6.24. Regarding `CN1C(=O)[C@@H](NC(=O)Nc2ccc(-c3noc(O)n3)cc2)N=C(c2ccccc2)c2ccccc21`, the solubility (thermodynamic) at 5 h in series [1] turned out to be 410 µg/mL (≈ 0.875 mM); in series [6], 1660 µg/mL (≈ 3.54 mM). This molecule also had a pIC50 in series [2] of 6.01. Molecule `CC(C)CN1C(=O)[C@H](NC(=O)Nc2ccc(-c3nnn[nH]3)cc2)N=C(c2ccccc2)c2ccccc21` gave a pIC50 in series [2] of 6.42.

On to `CN1C(=O)[C@H](NC(=O)Nc2ccc(-c3nn[nH]n3)cc2)N=C(c2ccccc2)c2ccccc21`, for which, in series [2], the pIC50 was 8.21. In the case of `CN1C(=O)C(NC(=O)Nc2ccc(C(=O)O)cc2)N=C(c2ccccc2)c2ccccc21` (single isomer, unassigned), the solubility (thermodynamic) at 5 h in series [1] is 4700 µg/mL (≈ 11 mM). In series [2], this molecule had a pIC50 of 5.81.
